Assays:
BGC-823 = test: Cytotoxicity against human BGC823 cells after 24 hrs by MTT assay; format: functional, cell-based; conditions: BGC-823, 24 h
SH-SY5Y = test: Cytotoxicity against human SH-SY5Y cells after 24 hrs by MTT assay; format: functional, cell-based
[1] = Cytotoxicity against human HELF cells after 24 hrs by MTT assay; format: cell-based
HepG2 = test: cells; conditions: Homo sapiens, HepG2, 24 h
Description: Cytotoxicity against human HepG2 cells after 24 hrs by MTT assay

HeLa = test: cells; conditions: Homo sapiens, 24 h
Description: Cytotoxicity against human HeLa cells after 24 hrs by MTT assay

H22 [2] = test: animal or person; conditions: Mus musculus, H22, ip, 168 h, read-out: INH
Description: Antitumor activity against mouse H22 cells xenografted in kunming mouse assessed as inhibition of tumor growth at 15 mg/kg, ip for 7 days

H22 [3] = test: Antitumor activity against mouse H22 cells xenografted in kunming mouse assessed as inhibition of tumor growth at 150 mg/kg, ip for 7 days; format: functional; conditions: 168 h, route intraperitoneal

| SMILES | IC50 (HepG2) [µM] | IC50 (HeLa) [µM] | IC50 (BGC-823) [µM] | IC50 (SH-SY5Y) [µM] | IC50 [1] [µM] | inhibition in vivo at 15 mg/kg (H22 [2]) [%] | inhibition in vivo at 150 mg/kg (H22 [3]) [%] |
| --- | --- | --- | --- | --- | --- | --- | --- |
| COC(=O)C(Cc1ccc(O)cc1)NC(=O)[C@]12CC[C@@H](C)[C@H](C)[C@H]1C1=CC[C@@H]3[C@@]4(C)CC[C@H](OC(C)=O)C(C)(C)[C@@H]4CC[C@@]3(C)[C@]1(C)CC2 (some centres not stated) | > 100 | 67 | 83 | > 100 | 35.8 | – | – |
| CCOC(=O)[C@]12CC[C@@H](C)[C@H](C)[C@H]1C1=CC[C@@H]3[C@@]4(C)CC[C@H](O)C(C)(C)[C@@H]4CC[C@@]3(C)[C@]1(C)CC2 | 70.8 | 29.2 | 69.3 | 66.3 | 81.9 | – | – |
| C[C@H]1[C@H](C)CC[C@]2(C(=O)N3CCN(CCOCCO)CC3)CC[C@]3(C)C(=CC[C@@H]4[C@@]5(C)CC[C@H](O)C(C)(C)[C@@H]5CC[C@]43C)[C@H]12 | 36.7 | 23.8 | 35 | 30.3 | 28.1 | – | – |
| O=P1(N(CCCl)CCCl)NCCCO1 (configuration not stated) [CYCLOPHOSPHAMIDE ANHYDROUS] | – | – | – | – | – | 55 | – |
| C[C@H]1[C@H](C)CC[C@]2(C(=O)NC(Cc3ccc(O)cc3)C(=O)O)CC[C@]3(C)C(=CC[C@@H]4[C@@]5(C)CC[C@H](O)C(C)(C)[C@@H]5CC[C@]43C)[C@H]12 (some centres not stated) | > 100 | > 100 | > 100 | > 100 | > 100 | – | – |
| C[C@H]1[C@H](C)CC[C@]2(C(=O)OCCCCO[N+](=O)[O-])CC[C@]3(C)C(=CC[C@@H]4[C@@]5(C)CC[C@H](O)C(C)(C)[C@@H]5CC[C@]43C)[C@H]12 | > 100 | > 100 | > 100 | > 100 | > 100 | – | – |
| C[C@H]1[C@H](C)CC[C@]2(C(=O)N3CCN(CCO)CC3)CC[C@]3(C)C(=CC[C@@H]4[C@@]5(C)CC[C@H](O)C(C)(C)[C@@H]5CC[C@]43C)[C@H]12 | > 100 | 52.3 | 98.3 | > 100 | 32.8 | – | – |
| CCCOC(=O)[C@]12CC[C@@H](C)[C@H](C)[C@H]1C1=CC[C@@H]3[C@@]4(C)CC[C@H](O)C(C)(C)[C@@H]4CC[C@@]3(C)[C@]1(C)CC2 | 89.1 | 48 | 79.7 | 92.5 | > 100 | – | – |
| C[C@H]1[C@H](C)CC[C@]2(C(=O)N3CCC(CCO)CC3)CC[C@]3(C)C(=CC[C@@H]4[C@@]5(C)CC[C@H](O)C(C)(C)[C@@H]5CC[C@]43C)[C@H]12 | > 100 | 67.3 | > 100 | > 100 | > 100 | – | – |
| C[C@H]1[C@H](C)CC[C@]2(C(=O)N(CCO)CCO)CC[C@]3(C)C(=CC[C@@H]4[C@@]5(C)CC[C@H](O)C(C)(C)[C@@H]5CC[C@]43C)[C@H]12 | 35.7 | 14.4 | 39.3 | 21.4 | 36.9 | – | – |
| C[C@H]1[C@H](C)CC[C@]2(C(=O)OCCCO[N+](=O)[O-])CC[C@]3(C)C(=CC[C@@H]4[C@@]5(C)CC[C@H](O)C(C)(C)[C@@H]5CC[C@]43C)[C@H]12 | 87.4 | 69.4 | 98.3 | 89.6 | 82.6 | – | – |
| CCCCOC(=O)[C@]12CC[C@@H](C)[C@H](C)[C@H]1C1=CC[C@@H]3[C@@]4(C)CC[C@H](O)C(C)(C)[C@@H]4CC[C@@]3(C)[C@]1(C)CC2 | > 100 | 63.2 | > 100 | > 100 | > 100 | – | – |
| C[C@H]1[C@H](C)CC[C@]2(C(=O)OCCO[N+](=O)[O-])CC[C@]3(C)C(=CC[C@@H]4[C@@]5(C)CC[C@H](O)C(C)(C)[C@@H]5CC[C@]43C)[C@H]12 | 79.6 | 36.2 | 84.2 | 71.1 | 68.1 | – | – |
| CC(=O)O[C@H]1C(=O)[C@@]2(C)[C@H]([C@H](OC(=O)c3ccccc3)[C@]3(O)C[C@H](OC(=O)[C@H](O)[C@@H](NC(=O)c4ccccc4)c4ccccc4)C(C)=C1C3(C)C)[C@]1(OC(C)=O)CO[C@@H]1C[C@@H]2O [PACLITAXEL] | 10.3 | 6.62 | 9.24 | 8.56 | 7.17 | – | – |

Continued, in another order:

| IC50 (HepG2) [µM] | IC50 (HeLa) [µM] | SMILES | IC50 (BGC-823) [µM] | IC50 (SH-SY5Y) [µM] | IC50 [1] [µM] | inhibition in vivo at 15 mg/kg (H22 [2]) [%] | inhibition in vivo at 150 mg/kg (H22 [3]) [%] |
| --- | --- | --- | --- | --- | --- | --- | --- |
| 46.6 | 16.3 | CC(=O)O[C@H]1CC[C@]2(C)[C@H]3CC=C4[C@@H]5[C@@H](C)[C@H](C)CC[C@]5(C(=O)NCCO)CC[C@@]4(C)[C@]3(C)CC[C@H]2C1(C)C | 48.5 | 49.4 | 27.8 | – | – |
| 15.3 | 6.28 | CC(=O)O[C@H]1CC[C@]2(C)[C@H]3CC=C4[C@@H]5[C@@H](C)[C@H](C)CC[C@]5(C(=O)N5CCN(CCOCCO)CC5)CC[C@@]4(C)[C@]3(C)CC[C@H]2C1(C)C | 12.8 | 9.51 | 38.9 | – | – |
| 68.8 | 33.1 | C[C@H]1[C@H](C)CC[C@]2(C(=O)O)CC[C@]3(C)C(=CC[C@@H]4[C@@]5(C)CC[C@H](O)C(C)(C)[C@@H]5CC[C@]43C)[C@H]12 [URSOLIC ACID] | 66.4 | 54.6 | 21.3 | – | 36.2 |
| > 100 | > 100 | CCCCOC(=O)[C@]12CC[C@@H](C)[C@H](C)[C@H]1C1=CC[C@@H]3[C@@]4(C)CC[C@H](OC(C)=O)C(C)(C)[C@@H]4CC[C@@]3(C)[C@]1(C)CC2 | > 100 | > 100 | > 100 | – | – |
| 35.3 | 20.6 | COC(=O)C(CO)NC(=O)[C@]12CC[C@@H](C)[C@H](C)[C@H]1C1=CC[C@@H]3[C@@]4(C)CC[C@H](OC(C)=O)C(C)(C)[C@@H]4CC[C@@]3(C)[C@]1(C)CC2 (some centres not stated) | 29 | 37.2 | 22.3 | – | – |
| > 100 | > 100 | CCOC(=O)[C@]12CC[C@@H](C)[C@H](C)[C@H]1C1=CC[C@@H]3[C@@]4(C)CC[C@H](OC(C)=O)C(C)(C)[C@@H]4CC[C@@]3(C)[C@]1(C)CC2 | > 100 | > 100 | > 100 | – | – |
| 59.4 | 12.4 | CC(=O)O[C@H]1CC[C@]2(C)[C@H]3CC=C4[C@@H]5[C@@H](C)[C@H](C)CC[C@]5(C(=O)N5CCC(CCO)CC5)CC[C@@]4(C)[C@]3(C)CC[C@H]2C1(C)C | 51.3 | 40.1 | 30 | – | – |
| 83 | 41.6 | C[C@H]1[C@H](C)CC[C@]2(C(=O)NC(CO)C(=O)O)CC[C@]3(C)C(=CC[C@@H]4[C@@]5(C)CC[C@H](O)C(C)(C)[C@@H]5CC[C@]43C)[C@H]12 (some centres not stated) | 79.3 | 72.2 | 60.3 | – | – |
| 82.4 | 32.3 | C[C@H]1[C@H](C)CC[C@]2(C(=O)NCCO)CC[C@]3(C)C(=CC[C@@H]4[C@@]5(C)CC[C@H](O)C(C)(C)[C@@H]5CC[C@]43C)[C@H]12 | 78.3 | 65 | 52.8 | – | – |
| 20.5 | 7.24 | CC(=O)O[C@H]1CC[C@]2(C)[C@H]3CC=C4[C@@H]5[C@@H](C)[C@H](C)CC[C@]5(C(=O)N5CCN(CCO)CC5)CC[C@@]4(C)[C@]3(C)CC[C@H]2C1(C)C | 13.9 | 11.7 | 31 | – | – |
| > 100 | > 100 | CCCOC(=O)[C@]12CC[C@@H](C)[C@H](C)[C@H]1C1=CC[C@@H]3[C@@]4(C)CC[C@H](OC(C)=O)C(C)(C)[C@@H]4CC[C@@]3(C)[C@]1(C)CC2 | > 100 | > 100 | > 100 | – | – |

From ChEMBL document CHEMBL1795221, “In vitro and in vivo anticancer activity evaluation of ursolic acid derivatives” (Eur J Med Chem, 2011)
